Results taken from patent US12064502B2, “Peptide exhibiting wrinkle-improving activity and uses thereof” (CAREGEN CO., LTD., priority 2017, dated 2024).
Several values for one entry are separate records, joined by “and”; a condition that tells them apart may be missing. Identical values can stand only once.

How the values were obtained:
Human keratinocyte HaCaT = test: Promotion of proliferation of keratinocytes (MTT assay); assay type: cell-based; conditions: 3 days, control = 100
Protocol: Human keratinocyte HaCaT was seeded in a 6-well plate at a density of 3×10^5 cells/well, and then cultured overnight. Subsequently, the media were changed to 0.05% serum-containing media. Then, treatment with the positive control, i.e., 10 nM EGF, and 10 μM or 50 μM of the peptide consisting of an amino acid sequence of SEQ ID NO: 1, 2, 3, or 4 were performed and cultured for 3 days. Then, 4 mg/mL MTT solution treatment was performed, and the reaction was carried out for 4 hours. Then, the resulting formazan was dissolved by treatment with dimethyl sulfoxide (hereinafter referred to as “DMSO”), and the absorbance at 560 nm was measured using a microplate reader.

[1] = test system: MAPK (ERK, p38, and JNK) and AKT; test: Phosphorylation level of MAPK and AKT in fibroblasts (western blotting); assay type: cell-based, mouse; conditions: 10 μM or 50 μM, NIH3T3, 30 minutes
Protocol: Mouse fibroblast NIH3T3 was seeded in a 6-well plate at a density of 5×10^3 cells/well, and then cultured overnight. Subsequently, the media were changed to 0.05% FBS-containing media. Then, treatment with the positive control, i.e., 100 nM bFGF, and 10 μM or 50 μM of the peptide consisting of an amino acid sequence of SEQ ID NO: 1, 2, 3, or 4 were performed and cultured for 30 minutes. Then, the cells were collected to prepare cell lysate. Then, western blotting was performed using P-MAPK (p-Erk, p-JNK, p-p38) and p-Akt or actin antibody (Santacruz Biotechnology, USA).

Procollagen1a = Procollagen1a ELISA; assay type: cell-based, mouse; conditions: for Pro-collagen1a protein expression (result in words): NIH3T3, 72 hours, ELISA; for Procollagen1a expression (%): NIH3T3 medium, 72 hours, control = 100
Protocol: Mouse fibroblast NIH3T3 was seeded in a 6-well plate at a density of 5×10^3 cells/well, and then cultured overnight. Subsequently, the media were changed to 0.05% FBS-containing media, followed by culturing for 4 hours. Then, treatment with the positive control, i.e., 100 nM IGF-1, and the peptide consisting of an amino acid sequence of SEQ ID NO: 1, 2, 3, or 4 were performed and cultured for 72 hours. Then, the media were collected. The amount in the medium was measured using Procollagen1a ELISA kit (Usbiological Lifescience, USA).

[2] = test system: collagen1a, fibronectin, elastin mRNA; test: RT-PCR of collagen1a, fibronectin and elastin in fibroblasts; assay type: cell-based, mouse; conditions: 10 μM or 50 μM, NIH3T3, 24 hours
Protocol: Mouse fibroblast NIH3T3 was seeded in a 6-well plate at a density of 5×10^3 cells/well, and then cultured overnight. Subsequently, the media were changed to 0.05% FBS-containing media, followed by culturing for 4 hours. Then, treatment with the positive control, i.e., 100 nM IGF-1, and 10 μM or 50 μM of the peptide consisting of an amino acid sequence of SEQ ID NO: 1, 2, 3, or 4 were performed and cultured for 24 hours. Then, the cells were cultured and collected to isolate RNA. cDNA was synthesized using a cDNA synthesis kit (Intron, Korea) after quantification of RNA, and PCR was carried out using primers of each of PCR premix (Intron, Korea) and collagen1a, fibronectin, elastin, GAPDH in Table 4. Then, the cells were run on 5% agarose gel, and degrees of mRNA expression of the growth factors were compared in each peptide treatment condition.

Mouse fibroblast NIH3T3 = test: Promotion of proliferation of fibroblasts (MTT assay); assay type: cell-based; conditions: NIH3T3, 3 days; for Fibroblast proliferation (result in words): 10 μM or 50 μM; for Fibroblast proliferation (%): MTT, control = 100
Protocol: Mouse fibroblast NIH3T3 was seeded in a 96-well plate at a density of 5×10^3 cells/well, and then cultured overnight. Subsequently, the media were changed to 0.05% serum-containing media. Then, treatment with the positive control, i.e., 100 nM bFGF, and 10 μM or 50 μM of the peptide consisting of an amino acid sequence of SEQ ID NO: 1, 2, 3, or 4 were performed and cultured for 3 days. Then, 4 mg/mL MTT solution treatment was performed, and the reaction was carried out for 4 hours. Then, the resulting formazan was dissolved by treatment with dimethyl sulfoxide (hereinafter referred to as “DMSO”), and the absorbance at 560 nm was measured using a microplate reader.

HA = HA ELISA; assay type: cell-based, human; conditions: 72 hours; for HA expression: HaCaT medium, control 251
Protocol: Human keratinocyte HaCaT was seeded in a 6-well plate at a density of 3×10^5 cells/well, and then cultured overnight. The media were changed to 0.05% FBS-containing media, followed by culturing for 4 hours. Then, treatment with the positive control, i.e., 100 nM IGF-1, and the peptide consisting of an amino acid sequence of SEQ ID NO: 2 were performed and cultured for 72 hours. Then, the media were collected. An HA ELISA kit (Echelon, USA) was used to measure an amount thereof.

AQP3 = test: RT-PCR of AQP3 (Aquaporin3) and SIRT1 in keratinocytes; assay type: cell-based, human; conditions: 10 μM or 50 μM, HaCaT, 24 hours
Protocol: Human keratinocyte HaCaT was seeded in a 6-well plate at a density of 3×10^5 cells/well, and then cultured overnight. Subsequently, the media were changed to 0.05% FBS-containing media, followed by culturing for 4 hours. Then, treatment with the positive control, i.e., 100 nM EGF, and 10 μM or 50 μM of the peptide consisting of an amino acid sequence of SEQ ID NO: 1 or 2 were performed and cultured for 24 hours. Then, the cells were cultured and collected to isolate RNA. cDNA was synthesized using a cDNA synthesis kit (Intron, Korea) after quantification of RNA, and PCR was carried out using primers of each of PCR premix (Intron, Korea) and AQP3, SIRT1, and GAPDH in Table 5. Then, the cells were run on 5% agarose gel, and degrees of mRNA expression of the growth factors were compared in each peptide treatment condition.

[3] = test system: collagen 1a, fibronectin, and elastin; test: Expression amount of collagen1a, fibronectin and elastin protein (antibody staining, fluorescence microscope); assay type: cell-based, mouse; conditions: NIH3T3, 24 hours
Protocol: Mouse fibroblast NIH3T3 was seeded in a 6-well plate at a density of 5×10^3 cells/well, and then cultured overnight. Subsequently, the media were changed to 0.05% serum-free media. Then, treatment with the positive control, i.e., 100 nM EGF, and the peptide consisting of an amino acid sequence of SEQ ID NO: 1 or 2 were performed and cultured for 24 hours. Then, the cells were fixed for 30 minutes using 4% paraformaldehyde. Then, after washing 3 times, the cells were reacted with 0.5% Triton X-100 for 15 minutes and washed again 3 times. Then, 3% BSA was blocked for 1 hour and the primary antibody (1:100) for collagen 1a, fibronectin, and elastin was reacted overnight at 4° C. Then, the secondary antibody (1:500) was reacted at room temperature for 2 hours, stained with DAPI staining, and observation was made with a fluorescence microscope.

ERK and p38 = test: Phosphorylation level of MAPK and AKT in keratinocytes (western blotting); assay type: cell-based, human; conditions: 10 μM or 50 μM, HaCaT, 30 minutes
Protocol: Human keratinocyte HaCaT was seeded in a 6-well plate at a density of 3×10^5 cells/well, and then cultured overnight. Subsequently, the media were changed to 0.05% FBS-containing media. Then, treatment with the positive control, i.e., 10 nM EGF, and 10 μM or 50 μM of the peptide consisting of an amino acid sequence of SEQ ID NO: 1 or 2 were performed and cultured for 30 minutes. Then, the cells were collected to prepare cell lysate. Then, western blotting was performed using P-MAPK (p-Erk, p-JNK, p-p38) and p-Akt antibody (Santacruz Biotechnology, USA).

| Substance | Keratinocyte proliferation (%) (Human keratinocyte HaCaT; peptide 10 μM) | Keratinocyte proliferation (%) (Human keratinocyte HaCaT; peptide 50 μM) | Phosphorylation of MAPK and AKT in fibroblasts (result in words) [1] | Pro-collagen1a protein expression (result in words) (Procollagen1a) | Procollagen1a expression (%) (Procollagen1a; peptide 10 μM) | Procollagen1a expression (%) (Procollagen1a; peptide 50 μM) | mRNA expression of collagen, fibronectin and elastin (result in words) [2] | Fibroblast proliferation (result in words) (Mouse fibroblast NIH3T3) | Fibroblast proliferation (%) (Mouse fibroblast NIH3T3; peptide 10 μM) | Fibroblast proliferation (%) (Mouse fibroblast NIH3T3; peptide 50 μM) | Keratinocyte proliferation (%) (Human keratinocyte HaCaT; positive control 10 nM) | HA expression (HA; positive control 100 nM) [ng/mL] | Procollagen1a expression (%) (Procollagen1a; positive control 100 nM) | AQP3 expression (result in words) (AQP3) | Protein expression of collagen, fibronectin and elastin (result in words) [3] | Phosphorylation of MAPK in keratinocytes (result in words) (ERK and p38) | HA expression (result in words) (HA; HaCaT, ELISA) | HA expression (HA; peptide 10 μM) [ng/mL] | HA expression (HA; peptide 50 μM) [ng/mL] | Fibroblast proliferation (%) (Mouse fibroblast NIH3T3; positive control 100 nM) |
| --- | --- | --- | --- | --- | --- | --- | --- | --- | --- | --- | --- | --- | --- | --- | --- | --- | --- | --- | --- | --- |
| EDEFKPPAAGR [SEQ ID NO: 4] | 113 | 142 | activation of MAPK (ERK, p38, and JNK) and AKT | expression of pro-collagen1a protein was found to increase | 122 | 141 | increasing expression of mRNA of collagen, fibronectin, and elastin | promote fibroblast proliferation | 114 | 193 |  |  |  |  |  |  |  |  |  |  |
| EGF: positive control, 10 nM EGF, in the keratinocyte tests [reference compound] |  |  |  |  |  |  |  |  |  |  | 187% and 142% and 152% |  |  |  |  |  |  |  |  |  |
| GPVH [SEQ ID NO: 3] | 183 | 197 | activation of MAPK (ERK, p38, and JNK) and AKT | expression of pro-collagen1a protein was found to increase | 138 | 143 | increasing expression of mRNA of collagen, fibronectin, and elastin | promote fibroblast proliferation | 194 | 261 |  |  |  |  |  |  |  |  |  |  |
| IGF-1: positive control, 100 nM IGF-1, in the ELISA and RT-PCR tests [reference compound] |  |  |  |  |  |  |  |  |  |  |  | 280 | 113% and 140% |  |  |  |  |  |  |  |
| ILGRWCG [SEQ ID NO: 2] | 111 | 119 | activation of MAPK (ERK, p38, and JNK) and AKT | expression of pro-collagen1a protein was found to increase | 145 | 146 | increasing expression of mRNA of collagen, fibronectin, and elastin | promote fibroblast proliferation | 188 | 253 |  |  |  | increasing AQP3 expression | increasing expression of proteins of collagen, fibronectin, and elastin | activation of ERK and p38 | increasing HA expression | 286 | 292 |  |
| KWGGGRY [SEQ ID NO: 1] | 120 | 136 | activation of MAPK (ERK, p38, and JNK) and AKT | expression of pro-collagen1a protein was found to increase | 98 | 157 | increasing expression of mRNA of collagen, fibronectin, and elastin | promote fibroblast proliferation | 170 | 194 |  |  |  | increasing AQP3 expression | increasing expression of proteins of collagen, fibronectin, and elastin | activation of ERK and p38 |  |  |  |  |
| bFGF: positive control, 100 nM bFGF, in the fibroblast tests [reference compound] |  |  |  |  |  |  |  |  |  |  |  |  |  |  |  |  |  |  |  | 386% and 279% and 400% |
